The text below walks through data of patent US20150152080A1, “BENZOTHIOPHENE SULFONAMIDES DERIVATIVES AS CHEMOKINE RECEPTOR MODULATORS” (Allergan, Inc., priority 2013, published 2015).

Molecules are shown by their SMILES.

The target in the assay is T1, CCR2 (Homo sapiens, UniProt P41597).
T1 construct: expressed in transfected cells; geneticin and hygromycin selection
As to the kind of experiment: Calcium activity assay on FLIPR Tetra in HEK-Gqi5 cells stably expressing CCR2. The note with it: for Emax: read-out: CCR2 ANTAGONISM Rel. Eff. (%). The class given is cell-based. As for the experimental part: HEK-Gqi5 cells stably expressing CCR2 were cultured in DMEM high glucose, 10% FBS, 1% PSA, 400 μg/ml geneticin and 50 μg/ml hygromycin. Appropriate positive control chemokines (MCP-1, MIP1A or RANTES) was used as the positive control agonist for screening compound-induced calcium activity assayed on the FLIPR^Tetra. The drug plates were prepared in 384-well microplates using the EP3 and the MultiPROBE robotic liquid handling systems. Compounds were synthesized and tested for CCR2 activity.

T1 sequence (P41597 whole entry, species assumed): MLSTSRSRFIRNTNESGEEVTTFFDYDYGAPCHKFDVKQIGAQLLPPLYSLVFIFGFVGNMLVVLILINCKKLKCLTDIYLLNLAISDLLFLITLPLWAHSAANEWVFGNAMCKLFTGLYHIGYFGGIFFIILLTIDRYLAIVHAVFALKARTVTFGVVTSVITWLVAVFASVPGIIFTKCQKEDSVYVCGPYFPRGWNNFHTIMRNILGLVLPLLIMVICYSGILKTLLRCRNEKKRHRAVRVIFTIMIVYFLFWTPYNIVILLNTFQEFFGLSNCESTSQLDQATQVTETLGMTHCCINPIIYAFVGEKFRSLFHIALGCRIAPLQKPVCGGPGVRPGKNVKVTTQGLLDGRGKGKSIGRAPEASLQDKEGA

As for `O=S(=O)(Nc1cccnc1[S+]([O-])Cc1ccccc1)c1cc2ccccc2s1` (stereo not shown) [Compound 12, N-[2-(Benzylsulfinyl)pyridin-3-yl]-1-benzothiophene-2-sulfonamide], the IC50 was 0.122 µM and the Emax is 72%. On to `Nc1cccc(CS(=O)(=O)c2ccc(Cl)cc2NS(=O)(=O)c2cc3ccccc3s2)c1` [Compound 7, N-{2-[(3-Aminobenzyl)sulfonyl]-5-chlorophenyl}-1-benzothiophene-2-sulfonamide], for which the IC50 turned out to be 0.077 µM and the Emax worked out at 98%. Take `COC(=O)c1ccccc1CSc1ccc(F)cc1NS(=O)(=O)c1cc2ccccc2s1` [Compound 13, methyl 2-[({2-[(1-benzothiophen-2-ylsulfonyl)amino]-4-fluorophenyl}sulfanyl)methyl]benzoate]: the IC50 stood at 0.268 µM and the Emax is 68%. As to `Cc1ccc(NS(=O)(=O)c2cc3ccccc3s2)c(SCc2ccccc2C(=O)O)c1` [Compound 9, 2-[({2-[(1-Benzothiophen-2-ylsulfonyl)amino]-5-methylphenyl}sulfanyl)methyl]benzoic acid], the IC50 is 0.114 µM and the Emax worked out at 88%. For the molecule `O=C(O)c1ccccc1CSc1ccc(F)cc1NS(=O)(=O)c1cc2ccccc2s1` [Compound 14, 2-[({2-[(1-benzothiophen-2-ylsulfonyl)amino]-4-fluorophenyl}sulfanyl)methyl]benzoic acid], the IC50 is below 0.01 µM and the Emax is 96%. Turning to `COC(=O)c1ccccc1CSc1ccc(Cl)cc1NS(=O)(=O)c1cc2ccccc2s1` [Compound 1], the IC50 is 0.198 µM and the Emax is 86%. Regarding `Cc1ccc(SCc2ccccc2C(=O)O)c(NS(=O)(=O)c2cc3ccccc3s2)c1` [Compound 4, 2-[({2-[(1-Benzothiophen-2-ylsulfonyl)amino]-4-methylphenyl}sulfanyl)methyl]benzoic acid], the Emax stood at 99%.

As to `O=S(=O)(Cc1ccccc1)c1ncccc1NS(=O)(=O)c1cc2ccccc2s1` [Compound 11, N-[2-(Benzylsulfonyl)pyridin-3-yl]-1-benzothiophene-2-sulfonamide], the IC50 was determined as 0.085 µM and the Emax turned out to be 93%. In the case of `O=S(=O)(Nc1cccnc1SCc1ccccc1)c1cc2ccccc2s1` [Compound 10, N-[2-(Benzylsulfanyl)pyridin-3-yl]-1-benzothiophene-2-sulfonamide], the IC50 came to 2.25 µM and the Emax amounted to 44%. Take `O=C(O)c1ccccc1CSc1ccc(Cl)cc1NS(=O)(=O)c1cc2ccccc2s1` [Compound 2, 2-[({2-[(1-Benzothiophen-2-ylsulfonyl)amino]-4-chlorophenyl}sulfanyl)methyl]benzoic acid]: the IC50 amounted to 0.004 µM and the Emax came to 100%.
